Assay results reported in US20230135552A1, “Compounds Useful In Inhibiting Ketohexokinase And Methods Of Making And Using The Same” (Inorbit Therapeutics AB, priority 2020, published 2023).
pIC50: −log10 of the molar value.

How the values were obtained:
[1] = molecular target: T1, Human Ketohexokinase (KHK-A) (Homo sapiens, UniProt P50053); experiment: Transcreener Kinase ADP2 FP assay, inhibition of human KHK-A; format: biochemical; details: recombinant human KHK-A 17.5 nM, 0.3 mM ATP, 7 mM fructose, 30 min pre-incubation, 60 min at 30° C.
T1 construct: Recombinant Human Ketohexokinase, Met1Val298, with C terminal 6His tag; 6His (C); purchased R&D Systems 8177-HK
T1 sequence (P50053 1-298 isoform P50053-2): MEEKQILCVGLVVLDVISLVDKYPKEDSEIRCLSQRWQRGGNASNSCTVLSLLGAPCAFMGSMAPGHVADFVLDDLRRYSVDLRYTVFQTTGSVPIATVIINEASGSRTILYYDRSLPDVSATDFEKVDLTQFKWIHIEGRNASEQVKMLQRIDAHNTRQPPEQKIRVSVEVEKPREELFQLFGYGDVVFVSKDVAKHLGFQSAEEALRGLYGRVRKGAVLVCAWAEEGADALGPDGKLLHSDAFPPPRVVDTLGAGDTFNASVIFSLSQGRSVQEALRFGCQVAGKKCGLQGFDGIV
Protocol: The following materials and methods were used, • Enzyme description and source: Recombinant Human Ketohexokinase, Met1Val298, with C terminal 6His tag (R&D Systems, 8177-HK). • Reagents: 200 μM ATP and 100 mM D-(−)-Fructose (Sigma F0127) as substrates. • Enzyme reaction buffer: 25 mM HEPES, 300 mM KCl, 10 mM MgCl2, 10 mM CaCl2, pH 7.0. • Control compound: KHK Inhibitor (Millipore-Sigma 420640) See Maryanoff, B. E., et al. 2011. ACS Med. Chem. Lett. 2, 538. • Assay: Transcreener Kinase ADP2 FP assay as described: https://www.bellbrooklabs.com/products/transcreener-hts-assays/kinase-assays/ • Assay parameters: 12-point dose response (n=2), 3-fold serial dilution, starting at 100 μM
KHK-A was added to the tested compounds (from 10 mM stock solution in 25 mM Tris pH 7.4), to a total volume 5 μl, and pre-incubated for 30 minutes at rt to ensure E*I complex formation. The reaction was then initiated by addition of an equal volume (5 μl) containing ATP and Fructose to give a resulting mix of 17.5 nM KHK-A, 0.3 mM ATP, 7 mM Fructose, 25 mM Tris (pH 7.4), 10 mM MgCl2, 10 mM CaCl2 and 50 mM KCl. Following 60 min at 30° C., reactions were quenched with 10 μl of stop/detect mix (40 mM HEPES (pH 7.5), 80 mM EDTA, 0,04% Brij-35, 8 nM ADP tracer and optimal concentration of ADP2 antibody), The plates were read on a PHERAstar PLUS after 1-hour room temperature equilibration. […]

KHK = molecular target: T2, KHK (Rattus norvegicus, UniProt Q02974); experiment: Oral Fructose Tolerance Test (OFTT) in male Sprague Dawley rats; format: in vivo; details: 100 mg/kg oral; fructose bolus 2 g/kg 1 hour after compound; blood at 0.5, 1, 2 and 3 hours post challenge; FIG. 1
T2 construct: from tissue; host or cells: whole animal, male Sprague Dawley rats (in vivo)
T2 sequence (Q02974 1-298): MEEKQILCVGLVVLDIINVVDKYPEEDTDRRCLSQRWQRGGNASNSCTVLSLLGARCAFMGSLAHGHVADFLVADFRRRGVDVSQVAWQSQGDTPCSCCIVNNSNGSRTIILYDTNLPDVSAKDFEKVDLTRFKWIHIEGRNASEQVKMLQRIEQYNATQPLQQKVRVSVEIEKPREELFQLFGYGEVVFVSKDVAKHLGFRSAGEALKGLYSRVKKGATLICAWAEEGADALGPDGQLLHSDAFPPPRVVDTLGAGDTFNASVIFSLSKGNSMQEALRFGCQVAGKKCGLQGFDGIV
Protocol: FIG. 1: Graph showing the change in fructose levels from baseline in the control and Example 2 and 6 treated animals in the OFTT study.
The animals were fasted overnight, basal blood samples collected and a 100 mg/kg dose was orally administered of compounds example 2 or example 6. A fructose bolus (2 g/kg) was then given 1 hour after test compound administration and blood samples collected at 0.5, 1, 2 and 3 hours post fructose challenge. All the blood samples were centrifuged immediately and the separated plasma samples were stored at appropriate temperature for the fructose estimation. Plasma fructose concentration was measured by commercially available EnzyChrome fructose assay kit.

Row | SMILES | pIC50 [1] | change in fructose levels from baseline (plasma fructose) versus the control group (KHK)
1 | C[C@H]1CCN1c1nc(N2C[C@@H]3[C@H](C2)[C@H]3CS(=O)O)cc(C(F)(F)F)n1 [Example 2, sodium((1R,5S,6S)-3-(2-((S)-2-methylazetidin-1-yl)-6-(trifluoromethyl)pyrimidin-4-yl)-3-azabicyclo[3.1.0]hexan-6-yl)methanesulfinate] | 6.13 | increase of fructose plasma levels
2 | Cc1c(N2C[C@@H]3[C@H](C2)[C@H]3CS(=O)O)nc(N2CC[C@@H]2C)nc1C(F)(F)F [Example 6, sodium((1R,5S,6S)-3-(5-methyl-2-((S)-2-methylazetidin-1-yl)-6-(trifluoromethyl)pyrimidin-4-yl)-3-azabicyclo[3.1.0]hexan-6-yl)methanesulfinate] | 7.11 | increase of fructose plasma levels
